Test results published in patent US20260248720A1, “COMPOSITIONS SUITABLE FOR THE ADMINISTRATION OF CREATINE ESTERS” (priority 2023, published 2026).

Test: Chemical stability of DCE in the particulate emulsion (HPLC/UV)
Type: physicochemical
Method: The chemical stability of DCE in the particulate emulsion was monitored using an HPLC/UV method at 4° C. and at room temperature.

[1] = extrapolation with the slope of the decay

CCCCCCCCCCCCOC(=O)CN(C)C(=N)N [DCE, dodecyl creatine ester]
Calculation of remaining content (%) after 1 month of storage at room temperature [1]: 99% | Estimation of remaining content after 18 months of storage at 4° C. [1]: more than 95% | Period over which DCE is stable (storage at room temperature (20-25° C.)): more than 20 days | Period over which DCE is stable (storage in the fridge (4° C.)): more than 3 months
